Measured values from PubChem BioAssay (NCI).
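These data come from cells grown in 96-well plates and exposed to compound for 48 hours at five concentrations. At the TGI there is no net growth.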

Columns and labels:
Assay in all cases: NCI tumour cell line growth inhibition, 48 h
UACC-62 melanoma = test system: UACC-62 melanoma
PC-3 prostate = test system: PC-3 prostate
SNB-19 CNS = test system: SNB-19 CNS
DU-145 prostate = test system: DU-145 prostate
MALME-3M melanoma = test system: MALME-3M melanoma
OVCAR-4 ovarian = test system: OVCAR-4 ovarian
MOLT-4 leukemia = test system: MOLT-4 leukemia
SF-295 CNS = test system: SF-295 CNS
NCI-H522 lung = test system: NCI-H522 lung
COLO 205 colon = test system: COLO 205 colon
SR leukemia = test system: SR leukemia
RXF 393 renal = test system: RXF 393 renal
KM12 colon = test system: KM12 colon
MCF7 breast = test system: MCF7 breast
HCT-15 colon = test system: HCT-15 colon
OVCAR-5 ovarian = test system: OVCAR-5 ovarian
HL-60(TB) leukemia = test system: HL-60(TB) leukemia
SF-268 CNS = test system: SF-268 CNS
K-562 leukemia = test system: K-562 leukemia
OVCAR-8 ovarian = test system: OVCAR-8 ovarian
SK-MEL-2 melanoma = test system: SK-MEL-2 melanoma
NCI/ADR-RES ovarian = test system: NCI/ADR-RES ovarian
MDA-N = test system: MDA-N
SN12C renal = test system: SN12C renal
UO-31 renal = test system: UO-31 renal
SW-620 colon = test system: SW-620 colon
U251 CNS = test system: U251 CNS
SK-OV-3 ovarian = test system: SK-OV-3 ovarian
CAKI-1 renal = test system: CAKI-1 renal
SNB-75 CNS = test system: SNB-75 CNS
T-47D breast = test system: T-47D breast
MDA-MB-231 breast = test system: MDA-MB-231 breast
HT29 colon = test system: HT29 colon
HCT-116 colon = test system: HCT-116 colon
HOP-62 NSCLC = test system: HOP-62 NSCLC
SK-MEL-28 melanoma = test system: SK-MEL-28 melanoma
A549 NSCLC = test system: A549 NSCLC
EKVX NSCLC = test system: EKVX NSCLC
SK-MEL-5 melanoma = test system: SK-MEL-5 melanoma
NCI-H226 lung = test system: NCI-H226 lung
UACC-257 melanoma = test system: UACC-257 melanoma
HCC-2998 colon = test system: HCC-2998 colon
SF-539 CNS = test system: SF-539 CNS
HOP-92 NSCLC = test system: HOP-92 NSCLC
CCRF-CEM leukemia = test system: CCRF-CEM leukemia
HS 578T breast = test system: HS 578T breast
MDA-MB-435 = test system: MDA-MB-435
786-0 renal = test system: 786-0 renal
BT-549 breast = test system: BT-549 breast
RPMI-8226 leukemia = test system: RPMI-8226 leukemia
LOX IMVI melanoma = test system: LOX IMVI melanoma
ACHN renal = test system: ACHN renal
IGROV1 ovarian = test system: IGROV1 ovarian
M14 melanoma = test system: M14 melanoma
TK-10 renal = test system: TK-10 renal
NCI-H460 lung = test system: NCI-H460 lung

Measured: TGI

CCN(CC)c1ccc2cc(-c3nc4ccccc4c(=O)[nH]3)c(=N)oc2c1
> 100 µM: all assays above
